Assay results: PubChem BioAssay (NCI)
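GI50 = concentration required for 50% inhibition of growth. TGI is the concentration that stops growth completely.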

Assays:
Experiment in all cases: NCI anticancer screen, dose series, 384-well format
[1] = system: MDA-MB-231 breast
[2] = system: NCI-H522 lung
[3] = system: MALME-3M melanoma
[4] = system: HL-60(TB) leukemia
[5] = system: OVCAR-3 ovarian
[6] = system: SN12C renal
[7] = system: NCI-H23 lung
[8] = system: SK-MEL-28 melanoma
[9] = system: BT-549 breast
[10] = system: SF-295 CNS
[11] = system: HT29 colon
[12] = system: SF-539 CNS
[13] = system: ACHN renal
[14] = system: MDA-MB-435 melanoma
[15] = system: CAKI-1 renal
[16] = system: SNB-19 CNS
[17] = system: OVCAR-4 ovarian
[18] = system: UACC-62 melanoma
[19] = system: A498 renal
[20] = system: DU-145 prostate
[21] = system: IGROV1 ovarian
[22] = system: M14 melanoma
[23] = system: NCI-H460 NSCLC
[24] = system: OVCAR-8 ovarian
[25] = system: SNB-75 CNS
[26] = system: LOX IMVI melanoma
[27] = system: KM12 colon
[28] = system: MCF7 breast
[29] = system: COLO 205 colon
[30] = system: HCC-2998 colon
[31] = system: SF-268 CNS
[32] = system: MDA-MB-468 breast
[33] = system: NCI-H322M lung
[34] = system: RXF 393 renal
[35] = system: A549 NSCLC
[36] = system: RPMI-8226 leukemia
[37] = system: SK-OV-3 ovarian
[38] = system: NCI-H226 lung
[39] = system: EKVX NSCLC
[40] = system: HCT-116 colon
[41] = system: HOP-92 NSCLC
[42] = system: U251 glioblastoma
[43] = system: NCI/ADR-RES ovarian
[44] = system: TK-10 renal
[45] = system: PC-3 prostate
[46] = system: UO-31 renal
[47] = system: 786-0 renal
[48] = system: HS 578T breast
[49] = system: K-562 leukemia
[50] = system: CCRF-CEM leukemia
[51] = system: T-47D breast
[52] = system: HCT-15 colon
[53] = system: MOLT-4 leukemia
[54] = system: HOP-62 NSCLC
[55] = system: SW-620 colon

Q: For `FC(F)(F)c1ccc(Nc2nc(-c3c(C(F)(F)F)nc4ccccn34)cs2)cc1`, which GI50 [1] is on record?
A: 52.4 nM

Q: What about the TGI [1] of the same compound?
A: 4690 nM

Q: What about the GI50 [2] of the same compound?
A: 16.7 nM

Q: And the TGI [2]?
A: 36.6 nM

Q: What about the GI50 [3] of the same compound?
A: 32 nM

Q: And the TGI [3]?
A: 6490 nM

Q: And the GI50 [4]?
A: 14.7 nM

Q: And the TGI [4]?
A: 28.4 nM

Q: What about the GI50 [5] of the same compound?
A: 16.6 nM

Q: What about the TGI [5] of the same compound?
A: 39.1 nM

Q: What about the GI50 [6] of the same compound?
A: 38.6 nM

Q: What about the TGI [6] of the same compound?
A: 2400 nM

Q: What about the GI50 [7] of the same compound?
A: 26.4 nM

Q: What about the TGI [7] of the same compound?
A: 89.6 nM

Q: What about the GI50 [8] of the same compound?
A: 52.1 nM

Q: And the TGI [8]?
A: 5080 nM

Q: And the GI50 [9]?
A: 39.1 nM

Q: And the TGI [9]?
A: 1240 nM

Q: And the GI50 [10]?
A: 32.1 nM

Q: And the TGI [10]?
A: 356 nM

Q: What about the GI50 [11] of the same compound?
A: 23.8 nM

Q: And the TGI [11]?
A: 52.5 nM

Q: What about the GI50 [12] of the same compound?
A: 35.7 nM

Q: What about the TGI [12] of the same compound?
A: 179 nM

Q: And the GI50 [13]?
A: 88.9 nM

Q: And the TGI [13]?
A: 3190 nM

Q: And the GI50 [14]?
A: 12.8 nM

Q: What about the TGI [14] of the same compound?
A: 33.2 nM

Q: What about the GI50 [15] of the same compound?
A: 26.4 nM

Q: And the TGI [15]?
A: 1850 nM

Q: What about the GI50 [16] of the same compound?
A: 47.1 nM

Q: And the TGI [16]?
A: 1960 nM

Q: What about the GI50 [17] of the same compound?
A: 1000 nM

Q: What about the TGI [17] of the same compound?
A: 4460 nM

Q: What about the GI50 [18] of the same compound?
A: 27.5 nM

Q: And the TGI [18]?
A: 1590 nM

Q: And the GI50 [19]?
A: 32.7 nM

Q: What about the TGI [19] of the same compound?
A: 1240 nM

Q: And the GI50 [20]?
A: 32.8 nM

Q: What about the TGI [20] of the same compound?
A: 1370 nM

Q: And the GI50 [21]?
A: 73.2 nM

Q: And the TGI [21]?
A: 7330 nM

Q: What about the GI50 [22] of the same compound?
A: 25.2 nM

Q: And the TGI [22]?
A: 88.5 nM

Q: What about the GI50 [23] of the same compound?
A: 30.2 nM

Q: What about the TGI [23] of the same compound?
A: 83.3 nM

Q: And the GI50 [24]?
A: 35.7 nM

Q: What about the TGI [24] of the same compound?
A: 1150 nM

Q: What about the GI50 [25] of the same compound?
A: 22.1 nM

Q: What about the TGI [25] of the same compound?
A: 78.7 nM

Q: And the GI50 [26]?
A: 48.4 nM

Q: And the TGI [26]?
A: 2210 nM

Q: And the GI50 [27]?
A: 24.4 nM

Q: What about the TGI [27] of the same compound?
A: 1080 nM

Q: What about the GI50 [28] of the same compound?
A: 30.3 nM

Q: And the TGI [28]?
A: 1450 nM

Q: And the GI50 [29]?
A: 26.5 nM

Q: And the TGI [29]?
A: 67.1 nM

Q: What about the GI50 [30] of the same compound?
A: 32.1 nM

Q: What about the TGI [30] of the same compound?
A: 375 nM

Q: What about the GI50 [31] of the same compound?
A: 35.4 nM

Q: And the TGI [31]?
A: 1430 nM

Q: And the GI50 [32]?
A: 161 nM

Q: And the TGI [32]?
A: 310 nM

Q: And the GI50 [33]?
A: 50.4 nM

Q: What about the TGI [33] of the same compound?
A: 2560 nM

Q: And the GI50 [34]?
A: 13.4 nM

Q: And the TGI [34]?
A: 42.8 nM

Q: And the GI50 [35]?
A: 61.9 nM

Q: And the TGI [35]?
A: 3740 nM

Q: And the GI50 [36]?
A: 18.3 nM

Q: What about the TGI [36] of the same compound?
A: 36.8 nM

Q: And the GI50 [37]?
A: 34.8 nM

Q: What about the TGI [37] of the same compound?
A: 1660 nM

Q: What about the GI50 [38] of the same compound?
A: 30.2 nM

Q: And the TGI [38]?
A: 86.7 nM

Q: And the GI50 [39]?
A: 43.2 nM

Q: What about the TGI [39] of the same compound?
A: 2390 nM

Q: And the GI50 [40]?
A: 32.8 nM

Q: And the TGI [40]?
A: 1440 nM

Q: And the GI50 [41]?
A: 41.1 nM

Q: What about the TGI [41] of the same compound?
A: 2970 nM

Q: And the GI50 [42]?
A: 42.4 nM

Q: What about the TGI [42] of the same compound?
A: 1490 nM

Q: And the GI50 [43]?
A: 19.5 nM

Q: What about the TGI [43] of the same compound?
A: 42.4 nM

Q: And the GI50 [44]?
A: 69.3 nM

Q: And the TGI [44]?
A: 5310 nM

Q: What about the GI50 [45] of the same compound?
A: 32.6 nM

Q: And the TGI [45]?
A: 1820 nM

Q: What about the GI50 [46] of the same compound?
A: 42.2 nM

Q: What about the TGI [46] of the same compound?
A: 3420 nM

Q: What about the GI50 [47] of the same compound?
A: 32.7 nM

Q: What about the TGI [47] of the same compound?
A: 1220 nM

Q: And the GI50 [48]?
A: 17.2 nM

Q: What about the TGI [48] of the same compound?
A: 37.5 nM

Q: And the GI50 [49]?
A: 27.6 nM

Q: And the TGI [49]?
A: 89.8 nM

Q: And the GI50 [50]?
A: 19.6 nM

Q: What about the TGI [50] of the same compound?
A: 36.9 nM

Q: What about the GI50 [51] of the same compound?
A: 28.9 nM

Q: What about the TGI [51] of the same compound?
A: 3230 nM

Q: What about the GI50 [52] of the same compound?
A: 32.4 nM

Q: And the TGI [52]?
A: 1320 nM

Q: What about the GI50 [53] of the same compound?
A: 18.9 nM

Q: And the TGI [53]?
A: 37.4 nM

Q: What about the GI50 [54] of the same compound?
A: 33.5 nM

Q: And the TGI [54]?
A: 1440 nM

Q: What about the GI50 [55] of the same compound?
A: 33.9 nM

Q: And the TGI [55]?
A: 2600 nM
